In this assay the test system is L1210 leukemia ip in BDF1 mice, survival T/C. The assay is described as follows: NCI In Vivo Anticancer Drug Screen. Data for tumor model L1210 Leukemia (intraperitoneal) in B6D2F1 (BDF1) mice. Conditions: endpoint: mean survival time, higher = longer survival. In outline: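 Mice bearing the transplanted tumor received compound or vehicle. Survival of the treated group was divided by that of the vehicle-treated control group to give the ratio.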

[1] abbreviates: dose: 100.0 mg/kg/injection, schedule: Q01DX009 (ip), vehicle: Klucel (hydroxypropylcellulose) (HPC).
[2] abbreviates: dose: 100.0 mg/kg/injection, schedule: Q04DX003 (ip), vehicle: Klucel (hydroxypropylcellulose) (HPC).
[3] abbreviates: dose: 200.0 mg/kg/injection, schedule: Q01DX009 (ip), vehicle: Klucel (hydroxypropylcellulose) (HPC).
Setting [4] is: dose: 200.0 mg/kg/injection, schedule: Q04DX003 (ip), vehicle: Klucel (hydroxypropylcellulose) (HPC).
[5] abbreviates: dose: 400.0 mg/kg/injection, schedule: Q04DX003 (ip), vehicle: Klucel (hydroxypropylcellulose) (HPC).
Where [6] appears, read: dose: 100.0 mg/kg/injection, schedule: Q01DX001 (ip), vehicle: saline with Tween-80.
Where [7] appears, read: dose: 200.0 mg/kg/injection, schedule: Q01DX001 (ip), vehicle: saline with Tween-80.
Where [8] appears, read: dose: 400.0 mg/kg/injection, schedule: Q01DX001 (ip), vehicle: saline with Tween-80.
[9] abbreviates: dose: 50.0 mg/kg/injection, schedule: Q01DX009 (ip), vehicle: Klucel (hydroxypropylcellulose) (HPC).
[10] abbreviates: dose: 50.0 mg/kg/injection, schedule: Q01DX009 (ip), vehicle: saline with Tween-80.
Setting [11] is: dose: 100.0 mg/kg/injection, schedule: Q01DX009 (ip), vehicle: saline with Tween-80.
Where [12] appears, read: dose: 200.0 mg/kg/injection, schedule: Q01DX009 (ip), vehicle: saline with Tween-80.
[13] abbreviates: dose: 12.5 mg/kg/injection, schedule: Q04DX002 (ip), vehicle: Klucel (hydroxypropylcellulose) (HPC).
Where [14] appears, read: dose: 100.0 mg/kg/injection, schedule: Q04DX003 (ip), vehicle: saline with Tween-80.
Setting [15] is: dose: 200.0 mg/kg/injection, schedule: Q04DX003 (ip), vehicle: saline with Tween-80.
Where [16] appears, read: dose: 400.0 mg/kg/injection, schedule: Q04DX003 (ip), vehicle: saline with Tween-80.
The mark [17] stands for this setting: dose: 100.0 mg/kg/injection, schedule: Q01DX001 (ip), vehicle: saline.
Setting [18] is: dose: 200.0 mg/kg/injection, schedule: Q01DX001 (ip), vehicle: saline.
[19] abbreviates: dose: 400.0 mg/kg/injection, schedule: Q01DX001 (ip), vehicle: saline.
[20] abbreviates: dose: 100.0 mg/kg/injection, schedule: Q01DX009 (ip), vehicle: saline.
[21] abbreviates: dose: 200.0 mg/kg/injection, schedule: Q01DX009 (ip), vehicle: saline.

Values joined by “and” are separate entries in the source; they are usually repeats but may differ in a detail not shown here. Identical values can stand only once. Inconclusive results and toxic doses are left out.

`Nc1ccccc1-c1ccccc1N`: the T/C reads like this: (dose: 25.0 mg/kg/injection, schedule: Q04DX002 (ip), vehicle: saline) 100 % of control; (dose: 50.0 mg/kg/injection, schedule: Q04DX002 (ip), vehicle: saline) 98 % of control; under setting [1], 96 % of control; (dose: 100.0 mg/kg/injection, schedule: Q04DX002 (ip), vehicle: saline) 114 % of control; under setting [2], 94 % of control; under setting [3], 102 % of control. Besides, the T/C under setting [4] was 91 % of control; the T/C (dose: 400.0 mg/kg/injection, schedule: Q01DX009 (ip), vehicle: Klucel (hydroxypropylcellulose) (HPC)) is 93 % of control; the T/C under setting [5] is 104 % of control.
On to `COC(O)C(O)C(O)C(O)CO` (centres undefined) (tested in a mixture with another compound), for which the T/C under setting [6] is 90 % of control, the T/C under setting [7] is 97 % of control and the T/C under setting [8] was 93 % of control.
In the case of `CCOC(=O)C1(C(=O)OCC)CCC(OCC)N1C(=O)c1cc(OC)c(OC)cc1[N+](=O)[O-]` (centres undefined), the T/C is, setting by setting: under setting [2], 105 % of control; under setting [4], 100 % of control; under setting [5], 99 % of control.
With `O=C(/C=C/c1ccccc1Cl)c1ccccc1`, the T/C runs as follows: under setting [9], 99 % of control; under setting [1], 92 % of control; under setting [3], 96 % of control.
For `Nc1nc(-c2ccccc2)cc(-c2ccccc2)c1-c1ccccc1`, the T/C under setting [10] was 108 % of control, the T/C under setting [11] was 112 % of control and the T/C under setting [12] is 104 % of control.
As for `COc1ccc(OC)c(/C=C/[N+](=O)[O-])c1`, the T/C (dose: 6.25 mg/kg/injection, schedule: Q01DX009 (ip), vehicle: Klucel (hydroxypropylcellulose) (HPC)) is 105 % of control; the T/C (dose: 12.5 mg/kg/injection, schedule: Q01DX009 (ip), vehicle: Klucel (hydroxypropylcellulose) (HPC)) is 102 % of control; the T/C (dose: 25.0 mg/kg/injection, schedule: Q01DX009 (ip), vehicle: Klucel (hydroxypropylcellulose) (HPC)) was 107 % of control; the T/C under setting [9] was 105 % of control; the T/C (dose: 100.0 mg/kg/injection, schedule: Q04DX003 (ip), vehicle: gum acacia) was 97 % of control.
Turning to `Cc1ccc2c[c]1[Hg][CH2]COS2(=O)=O`, the T/C (dose: 3.12 mg/kg/injection, schedule: Q04DX002 (ip), vehicle: Klucel (hydroxypropylcellulose) (HPC)) was 93 % of control; the T/C (dose: 6.25 mg/kg/injection, schedule: Q04DX002 (ip), vehicle: Klucel (hydroxypropylcellulose) (HPC)) is 101 % of control; the T/C under setting [13] was 102 % of control and 90 % of control.
`NC(=O)NN=C1CCC(CC2CCCCC2)CC1` (centres undefined): the T/C is, setting by setting: (dose: 25.0 mg/kg/injection, schedule: Q04DX003 (ip), vehicle: saline with Tween-80) 102 % of control; (dose: 50.0 mg/kg/injection, schedule: Q04DX003 (ip), vehicle: saline with Tween-80) 102 % of control.
Turning to `Cc1cc(NC(=O)c2ccc(C(=O)Nc3ccc(C4=NCCN4)c(C)c3)cc2)ccc1C1=NCCN1`, the T/C is, setting by setting: (dose: 48.0 mg/kg/injection, schedule: Q01DX Z (ip), vehicle: carboxymethylcellulose (CMC)) 109 % of control; (dose: 72.0 mg/kg/injection, schedule: Q01DX Z (ip), vehicle: carboxymethylcellulose (CMC)) 122 % of control; (dose: 100.0 mg/kg/injection, schedule: Q01DX Z (oral), vehicle: water) 92 % of control; (dose: 110.0 mg/kg/injection, schedule: Q01DX Z (ip), vehicle: carboxymethylcellulose (CMC)) 150 % of control and 277 % of control; (dose: 168.0 mg/kg/injection, schedule: Q01DX Z (ip), vehicle: carboxymethylcellulose (CMC)) 164 % of control; (dose: 200.0 mg/kg/injection, schedule: Q01DX Z (oral), vehicle: water) 107 % of control. The T/C is 108 % of control and 112 % of control (dose: 250.0 mg/kg/injection, schedule: Q01DX Z (ip), vehicle: carboxymethylcellulose (CMC)); 92 % of control (dose: 375.0 mg/kg/injection, schedule: Q01DX Z (ip), vehicle: carboxymethylcellulose (CMC)); 92 % of control (dose: 400.0 mg/kg/injection, schedule: Q01DX Z (oral), vehicle: water); 102 % of control (dose: 800.0 mg/kg/injection, schedule: Q01DX Z (oral), vehicle: water).
Consider `COC(=O)CCN1C(=O)c2ccccc2C1=O`, for which the T/C reads like this: under setting [6], 110 % of control; under setting [7], 102 % of control.
In the case of `CC(=O)NC(CSCc1c2ccccc2c(C)c2ccccc12)C(=O)O` (centres undefined), the T/C reads like this: (dose: 25.0 mg/kg/injection, schedule: Q01DX009 (ip), vehicle: saline with Tween-80) 97 % of control; under setting [10], 101 % of control; under setting [11], 97 % of control and 92 % of control; under setting [14], 94 % of control; under setting [12], 88 % of control; under setting [15], 96 % of control. For the same molecule, the T/C under setting [16] is 96 % of control.
Consider `COc1ccc2oc(C(=O)O)cc2c1`, for which the T/C was 101 % of control (dose: 100.0 mg/kg/injection, schedule: Q04DX003 (ip), vehicle: acetone); 101 % of control (dose: 200.0 mg/kg/injection, schedule: Q04DX003 (ip), vehicle: acetone); 101 % of control (dose: 400.0 mg/kg/injection, schedule: Q04DX003 (ip), vehicle: acetone).
Regarding `OC1C(SCc2ccccc2)OCC2OC3(CCCCC3)OC21` (centres undefined), the T/C is, setting by setting: under setting [17], 100 % of control; under setting [18], 102 % of control; under setting [19], 104 % of control.
For the molecule `CS(=O)c1nsc(S(C)=O)c1C#N` (centres undefined), the T/C under setting [13] was 122 % of control.
As to `CC(=O)OC1CCC2(C)C(CCC3C2CCC2(C)C(C(C)=O)CCC32)C1` (centres undefined), the T/C is 95 % of control (dose: 100.0 mg/kg/injection, schedule: Q01DX009 (sc), vehicle: steriod suspending solution); 95 % of control (dose: 200.0 mg/kg/injection, schedule: Q01DX009 (sc), vehicle: steriod suspending solution); 90 % of control (dose: 400.0 mg/kg/injection, schedule: Q01DX009 (sc), vehicle: steriod suspending solution).
With `CCN(CC)CCSC(=O)C(O)(c1ccccc1)C1CCCCC1` (centres undefined), the T/C (dose: 75.0 mg/kg/injection, schedule: Q01DX001 (ip), vehicle: other) was 100 % of control.
For `COS(=O)(=O)c1ccc([N+](=O)[O-])cc1[N+](=O)[O-]`, the T/C is, setting by setting: under setting [17], 100 % of control; under setting [18], 94 % of control; under setting [19], 91 % of control.
As to `CCCCCCCCCCC(C)CCCCCCCC` (centres undefined), the T/C runs as follows: under setting [6], 113 % of control; under setting [7], 100 % of control; under setting [8], 94 % of control.
The like results for `CCCCCSP(=S)(C(C)C)C(C)C` were, in that order, 95 % of control, 93 % of control and 91 % of control.
For `O=C1CC(C(=O)O)c2ccccc21` (centres undefined), the T/C (dose: 50.0 mg/kg/injection, schedule: Q01DX009 (ip), vehicle: saline) was 93 % of control; the T/C under setting [20] was 90 % of control; the T/C under setting [21] was 93 % of control.
With `O=C1c2cccc3c2C2(C45c6c7cccc6C(=O)c6cccc(c64)C(=O)c4cccc(c45)C7=O)c4c1cccc4C(=O)c1cccc(c12)C3=O`, the T/C is, setting by setting: under setting [20], 103 % of control; under setting [14], 94 % of control; under setting [21], 95 % of control; under setting [15], 107 % of control; (dose: 400.0 mg/kg/injection, schedule: Q01DX009 (ip), vehicle: saline) 95 % of control; under setting [16], 94 % of control.

For the origin of these results see PubChem BioAssay AID248 (DTP/NCI, 2004).
